How the values were obtained:
[1] = target: Muscarinic acetylcholine receptor M3 (Homo sapiens, UniProt P20309); experiment: Antagonist activity at human M3 receptor
[2] = target: T1, Beta-2 adrenergic receptor (Homo sapiens, UniProt P07550); experiment: Inhibition of beta2 adrenoceptor (unknown origin)
[3] = target: 3',5'-cyclic-AMP phosphodiesterase 4B (Homo sapiens, UniProt Q07343); experiment: Inhibition of PDE4B2 (unknown origin)
[4] = Inhibition of TNFalpha-induced NFkappaB (unknown origin); design: species or system Homo sapiens
[5] = target: T1, Beta-2 adrenergic receptor; experiment: Agonist activity at human beta2 adrenoceptor
[6] = Oral bioavailability in human; assay type: ADME, organism-based; conditions: in vivo
[7] = Half life in human; assay type: ADME
[8] = target: T2, Muscarinic acetylcholine receptor M2 (Homo sapiens, UniProt P08172); experiment: Inhibition of M2 receptor (unknown origin)
T2 sequence (P08172 whole entry): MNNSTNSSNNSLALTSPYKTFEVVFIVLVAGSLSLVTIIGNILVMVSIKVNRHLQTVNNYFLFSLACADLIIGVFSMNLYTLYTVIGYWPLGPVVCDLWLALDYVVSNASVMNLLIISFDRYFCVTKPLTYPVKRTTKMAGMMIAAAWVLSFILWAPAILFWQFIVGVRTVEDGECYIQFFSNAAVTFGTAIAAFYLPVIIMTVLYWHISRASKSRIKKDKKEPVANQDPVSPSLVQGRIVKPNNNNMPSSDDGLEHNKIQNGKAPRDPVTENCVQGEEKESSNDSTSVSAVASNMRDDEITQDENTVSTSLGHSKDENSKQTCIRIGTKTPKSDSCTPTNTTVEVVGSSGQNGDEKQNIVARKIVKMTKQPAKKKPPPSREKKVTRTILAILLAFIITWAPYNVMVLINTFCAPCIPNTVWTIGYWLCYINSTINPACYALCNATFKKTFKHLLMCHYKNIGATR

[9] = target: Macrophage metalloelastase (Homo sapiens, UniProt P39900); experiment: Inhibition of MMP12 (unknown origin)
Sequence of Macrophage metalloelastase (P39900 whole entry): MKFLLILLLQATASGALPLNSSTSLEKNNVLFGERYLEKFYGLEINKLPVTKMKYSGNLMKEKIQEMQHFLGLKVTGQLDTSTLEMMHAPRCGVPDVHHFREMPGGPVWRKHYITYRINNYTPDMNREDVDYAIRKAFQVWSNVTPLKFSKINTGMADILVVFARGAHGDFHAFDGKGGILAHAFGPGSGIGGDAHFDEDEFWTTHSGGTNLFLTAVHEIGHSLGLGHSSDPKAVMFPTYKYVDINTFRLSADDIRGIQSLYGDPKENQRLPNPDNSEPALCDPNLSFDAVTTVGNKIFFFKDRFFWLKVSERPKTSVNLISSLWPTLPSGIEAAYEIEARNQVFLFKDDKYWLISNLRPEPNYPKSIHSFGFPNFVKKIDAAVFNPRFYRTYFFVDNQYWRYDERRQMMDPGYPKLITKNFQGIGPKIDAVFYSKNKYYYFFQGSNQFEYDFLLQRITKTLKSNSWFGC

[10] = target: Voltage-gated inwardly rectifying potassium channel KCNH2 (Homo sapiens, UniProt Q12809); experiment: Inhibition of human ERG by high throughput automated patch clamp method
Sequence of Voltage-gated inwardly rectifying potassium channel KCNH2 (Q12809 whole entry): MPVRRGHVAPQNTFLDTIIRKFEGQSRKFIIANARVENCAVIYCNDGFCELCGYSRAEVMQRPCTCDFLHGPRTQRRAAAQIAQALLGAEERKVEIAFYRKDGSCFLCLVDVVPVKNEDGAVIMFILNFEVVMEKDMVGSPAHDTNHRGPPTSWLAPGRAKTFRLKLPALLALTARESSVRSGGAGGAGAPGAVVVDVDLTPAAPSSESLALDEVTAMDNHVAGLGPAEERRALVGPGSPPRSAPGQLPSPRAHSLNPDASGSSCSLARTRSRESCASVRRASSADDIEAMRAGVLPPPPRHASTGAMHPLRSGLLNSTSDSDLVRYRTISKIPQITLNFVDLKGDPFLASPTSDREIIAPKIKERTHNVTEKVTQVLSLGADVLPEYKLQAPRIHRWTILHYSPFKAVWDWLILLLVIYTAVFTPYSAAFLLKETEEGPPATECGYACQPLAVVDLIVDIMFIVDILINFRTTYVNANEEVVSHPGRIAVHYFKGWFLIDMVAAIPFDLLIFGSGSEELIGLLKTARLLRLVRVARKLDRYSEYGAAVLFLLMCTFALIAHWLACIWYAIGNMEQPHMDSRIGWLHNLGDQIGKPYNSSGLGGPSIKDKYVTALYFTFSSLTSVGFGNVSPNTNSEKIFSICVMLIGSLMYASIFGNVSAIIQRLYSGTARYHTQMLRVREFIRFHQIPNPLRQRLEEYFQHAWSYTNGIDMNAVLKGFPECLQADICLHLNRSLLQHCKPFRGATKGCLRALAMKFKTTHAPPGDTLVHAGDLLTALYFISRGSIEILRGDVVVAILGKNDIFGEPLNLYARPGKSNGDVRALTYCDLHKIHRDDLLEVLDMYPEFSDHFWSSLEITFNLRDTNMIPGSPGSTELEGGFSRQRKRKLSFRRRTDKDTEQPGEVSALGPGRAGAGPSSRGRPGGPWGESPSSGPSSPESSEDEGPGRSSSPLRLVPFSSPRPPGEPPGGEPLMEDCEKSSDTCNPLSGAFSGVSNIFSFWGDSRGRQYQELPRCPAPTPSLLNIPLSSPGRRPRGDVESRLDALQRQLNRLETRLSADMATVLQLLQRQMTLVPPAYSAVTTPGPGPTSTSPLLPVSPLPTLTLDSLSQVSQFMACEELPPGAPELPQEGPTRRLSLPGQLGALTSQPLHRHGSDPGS

T1 sequence (P07550 whole entry): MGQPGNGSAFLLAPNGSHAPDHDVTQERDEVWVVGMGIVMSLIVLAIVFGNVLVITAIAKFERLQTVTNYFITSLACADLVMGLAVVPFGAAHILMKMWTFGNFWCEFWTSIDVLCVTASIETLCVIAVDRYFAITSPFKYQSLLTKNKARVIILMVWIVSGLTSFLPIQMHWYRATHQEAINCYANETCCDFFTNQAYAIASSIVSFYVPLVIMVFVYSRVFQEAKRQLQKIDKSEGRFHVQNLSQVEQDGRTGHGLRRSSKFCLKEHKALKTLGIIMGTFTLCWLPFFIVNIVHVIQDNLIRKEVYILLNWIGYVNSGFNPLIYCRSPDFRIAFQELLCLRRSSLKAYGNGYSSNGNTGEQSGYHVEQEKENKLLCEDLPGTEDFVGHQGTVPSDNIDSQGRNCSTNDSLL
Sequence of Muscarinic acetylcholine receptor M3 (P20309 whole entry): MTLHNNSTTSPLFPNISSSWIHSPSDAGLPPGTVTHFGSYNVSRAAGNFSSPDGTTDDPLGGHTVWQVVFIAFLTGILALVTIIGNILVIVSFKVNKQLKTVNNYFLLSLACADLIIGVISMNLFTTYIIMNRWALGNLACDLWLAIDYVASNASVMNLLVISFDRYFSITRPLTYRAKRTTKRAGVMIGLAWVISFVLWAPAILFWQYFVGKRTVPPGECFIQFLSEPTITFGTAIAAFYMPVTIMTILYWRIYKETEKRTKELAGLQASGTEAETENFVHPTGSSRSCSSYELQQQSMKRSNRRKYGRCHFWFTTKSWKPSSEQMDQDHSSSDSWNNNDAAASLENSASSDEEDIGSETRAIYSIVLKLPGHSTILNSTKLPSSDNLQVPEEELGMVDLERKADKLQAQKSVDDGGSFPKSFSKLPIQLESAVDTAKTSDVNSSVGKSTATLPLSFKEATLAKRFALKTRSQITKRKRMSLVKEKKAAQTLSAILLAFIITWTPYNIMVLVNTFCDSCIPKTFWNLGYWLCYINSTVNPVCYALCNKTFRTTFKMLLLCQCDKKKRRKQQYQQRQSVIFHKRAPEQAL
Sequence of 3',5'-cyclic-AMP phosphodiesterase 4B (Q07343 whole entry): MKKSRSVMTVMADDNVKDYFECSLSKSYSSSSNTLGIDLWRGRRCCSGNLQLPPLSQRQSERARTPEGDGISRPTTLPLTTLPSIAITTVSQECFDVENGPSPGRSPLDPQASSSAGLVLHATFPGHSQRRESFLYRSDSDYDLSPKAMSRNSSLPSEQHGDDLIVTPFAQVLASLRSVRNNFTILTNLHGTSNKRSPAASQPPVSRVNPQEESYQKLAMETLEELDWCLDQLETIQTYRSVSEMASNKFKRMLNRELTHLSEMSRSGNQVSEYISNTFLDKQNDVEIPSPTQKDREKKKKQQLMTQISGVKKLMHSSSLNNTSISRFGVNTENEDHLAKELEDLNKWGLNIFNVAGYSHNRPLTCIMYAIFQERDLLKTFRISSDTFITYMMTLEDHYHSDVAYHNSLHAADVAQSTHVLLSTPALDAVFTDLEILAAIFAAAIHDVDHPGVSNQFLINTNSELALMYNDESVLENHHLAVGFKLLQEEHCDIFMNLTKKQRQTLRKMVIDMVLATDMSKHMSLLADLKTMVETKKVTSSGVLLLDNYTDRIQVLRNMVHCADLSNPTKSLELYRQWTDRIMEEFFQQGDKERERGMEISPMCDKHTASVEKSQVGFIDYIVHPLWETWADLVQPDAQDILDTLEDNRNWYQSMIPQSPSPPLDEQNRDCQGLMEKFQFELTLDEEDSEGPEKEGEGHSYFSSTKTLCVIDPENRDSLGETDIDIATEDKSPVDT

For `COc1cc(NC(=O)CCN2CCC(OC(=O)Nc3ccccc3-c3ccccc3)CC2)c(Cl)cc1CNC[C@H](O)c1ccc(O)c2[nH]c(=O)ccc12` [BATEFENTEROL], the IC50 [1] was 1.58 nM.

`COc1cccc(Nc2c(C(N)=O)cnc3c(C)cc(S(=O)(=O)c4cccc(C(=O)Nc5ccc(C#CCCCNC[C@H](O)c6ccc(O)c7[nH]c(=O)ccc67)cc5)c4)cc23)c1` showed an IC50 [2] of 11 nM and an IC50 [3] of 5 nM.

`O=C(Nc1cc(C(F)(F)F)cc(C(F)(F)F)c1)c1cc(Cl)ccc1O` [IMD-0354] showed an IC50 [4] of 1200 nM.

With `CC(C)c1ncc(C(=O)N2CCOC3(CCN(Cc4ccc(F)c(CCNC[C@H](O)c5ccc(O)c6[nH]c(=O)sc56)c4)CC3)C2)s1` the EC50 [5] was 0.251 nM and the IC50 [1] was 1.58 nM.

Work on `CC1=C(C#N)[C@@H](c2ccc(C#N)cc2S(C)(=O)=O)N(C)C(=O)N1c1cccc(C(F)(F)F)c1` yielded a bioavailability [6] of 63% and a half-life [7] of 8.5 h.

In the case of `C[N+]12CCC(CC1)C(OCC(O)(c1ccccc1)C1CCCC1)C2` (stereo unspecified) [BENCYCLOQUIDIUM BROMIDE], the Ki [8] is reported as 6.17 nM.

For `COc1ccc(Oc2ccc(S(=O)(=O)c3ccccc3CC(=O)NO)cc2)cc1`, the IC50 [9] was 0.2 nM.

With `COc1cc(NC(=O)OCCN(C)[C@H]2CC[C@H](OC(=O)C(O)(c3cccs3)c3cccs3)CC2)c(Cl)cc1CNC[C@H](O)c1ccc(O)c2[nH]c(=O)ccc12` [LAS190792] the EC50 [5] was 0.251 nM.

With `CC(C)(O)c1coc(S(=O)(=O)NC(=O)Nc2c3c(cc4c2CCC4)CCC3)c1` the IC50 [10] was > 30000 nM, the bioavailability [6] was 68% and the half-life [7] was 3.27 h.

Work on `CN(CCCn1nnc2cc(CNC[C@H](O)c3ccc(O)c4[nH]c(=O)ccc34)ccc21)[C@H]1CC[C@H](OC(=O)C(O)(c2cccs2)c2cccs2)CC1` [NAVAFENTEROL] yielded an EC50 [5] of 0.251 nM and an IC50 [1] of 1.58 nM.

Reference: ChEMBL document CHEMBL4406790, “Targeted Treatments for Chronic Obstructive Pulmonary Disease (COPD) Using Low-Molecular-Weight Drugs (LMWDs)” (J Med Chem, 2019)
